Among the data in US20050197338A1, “Substituted pyrazole urea compounds for the treatment of inflammation” (priority 2003, published 2005) are IC50 values, retold here.

Structures are written as SMILES.

The assay has as its target T1, human IKK-2 (rhIKK-2 homodimer) (Homo sapiens, UniProt O14920).
T1 construct: FLAG (DYKDDDDKD) (C); made in house; host or cells: insect cells (baculovirus, pFastBac)
T1 sequence (O14920 1-756): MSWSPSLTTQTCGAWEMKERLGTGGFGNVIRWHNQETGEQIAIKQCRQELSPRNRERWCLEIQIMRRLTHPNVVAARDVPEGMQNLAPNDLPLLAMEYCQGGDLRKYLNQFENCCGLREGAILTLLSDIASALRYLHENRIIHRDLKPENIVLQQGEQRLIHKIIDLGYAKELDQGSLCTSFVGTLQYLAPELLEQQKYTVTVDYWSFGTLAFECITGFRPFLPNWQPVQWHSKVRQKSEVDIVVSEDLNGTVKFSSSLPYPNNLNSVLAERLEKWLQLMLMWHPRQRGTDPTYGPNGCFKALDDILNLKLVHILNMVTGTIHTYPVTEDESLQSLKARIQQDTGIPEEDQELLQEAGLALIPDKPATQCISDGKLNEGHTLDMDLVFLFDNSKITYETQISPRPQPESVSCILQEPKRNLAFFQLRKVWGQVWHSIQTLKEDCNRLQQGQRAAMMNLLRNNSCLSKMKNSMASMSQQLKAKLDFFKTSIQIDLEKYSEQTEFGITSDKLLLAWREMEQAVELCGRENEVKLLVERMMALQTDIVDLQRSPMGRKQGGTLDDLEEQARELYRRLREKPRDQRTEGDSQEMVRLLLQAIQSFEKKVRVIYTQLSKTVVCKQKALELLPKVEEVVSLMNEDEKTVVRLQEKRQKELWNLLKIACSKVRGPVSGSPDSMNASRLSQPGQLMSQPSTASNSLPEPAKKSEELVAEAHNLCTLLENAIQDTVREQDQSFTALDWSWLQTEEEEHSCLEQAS
The assay can be described thus: IKK-2 Resin Enzyme Assay (Human IKK-2 Enzyme Assay). The assay is classed as biochemical. The settings on record: human IKK-2, resin enzyme assay; read-out: IC50 (μM) hIKK-2. An excerpt: Materials: SAM^2™96 Biotin capture plates were from Promega. Anti-FLAG affinity resin, FLAG-peptide, NP-40 (Nonidet P-40), BSA, ATP, ADP, AMP, LPS (E. coli serotype 0111:B4), and dithiothreitol were obtained from Sigma Chemicals. Antibodies specific for NEMO (IKK-γ) (FL-419), IKK-1 (H-744), IKK-2(H-470) and IκBa(C-21) were purchased from Santa Cruz Biotechnology. Ni-NTA resin was purchased from Qiagen. Peptides were purchased from American Peptide Company. Protease inhibitor cocktail tablets were from Boehringer Mannheim. Sephacryl S-300 column was from Pharmacia LKB Biotechnology. Centriprep-10 concentrators with a molecular weight cutoff of 10 kDa and membranes with molecular weight cut-off of 30 kDa were obtained from Amicon. [γ-^33P] ATP (2500 Ci/mmol) and [γ-^32P] ATP (6000 Ci/mmol) were purchased from Amersham. The other reagents used were of the highest grade commercially available.
Cloning and Expression: cDNAs of human IKK-1 and IKK-2 were amplified by reverse transcriptase-polymerase chain reaction from human placental RNA (Clonetech). hlKK-1 was subcloned into pFastBac HTa (Life Technologies) and expressed as N-terminal His6-tagged fusion protein. The hlKK-2 cDNA was amplified using a reverse oligonucleotide primer which incorporated the peptide sequence for a FLAG-epitope tag at the C-terminus of the IKK-2 coding region (DYKDDDDKD). The hlKK-2:FLAG cDNA was subcloned into the baculovirus vector pFastBac. The rhIKK-2 ([…]) mutant was constructed in the same vector used for wild type rhIKK-2 using a QuikChange™ mutagenesis kit (Stratagene). Viral stocks of each construct were used to infect insect cells grown in 40 L suspension culture. […] Cell lysates were stored at −80° C. until purification of the recombinant proteins was undertaken as described below.
Enzyme Isolation: All purification procedures were carried out at 4° C. unless otherwise noted. Buffers used are: buffer A: 20 mM Tris-HCl, pH 7.6, containing 50 mM NaCl, 20 mM NaF, 20 mM β-Glycerophosphate, 500 μM sodium orthovanadate, 2.5 mM metabisulfite, 5 mM benzamidine, 1 mM EDTA, 0.5 mM EGTA, 10% glycerol, 1 mM DTT, 1× Complete™ protease inhibitors; buffer B: same as buffer A, except 150 mM NaCl, and buffer C: same as buffer A, except 500 mM NaCl.
Isolation of rhIKK-2 homodimer: A 10-liter culture of baculovirus-expressing IKK-2 tagged with FLAG peptide was centrifuged and the cell pellet (MOI=0.1 and 1=72 h) was re-suspended in buffer A. These cells were microfluidized, and centrifuged at 100,000×g for 45 min. Supernatant was passed over a G-25 column equilibrated with Buffer A. Protein peak was collected and incubated with anti-FLAG affinity resin on a rotator overnight in buffer B. The resin was washed in batch with 10-15 bed volumes of buffer C. Washed resin was poured into a column and rhIKK-2 homodimer was eluted using 5 bed volumes of buffer B containing FLAG peptide. 5 mM DTT, 0.1% NP-40 and BSA (concentrated to 0.1% in final amount) was added to the eluted enzyme before concentrating in using an Amicon membrane with a molecular weight cut-off of 30 kDa. Enzyme was aliquoted and stored at −80° C.
IKK-2 Resin Enzyme Assay: IKK-2 kinase activity was measured using a biotinylated IκBα peptide (Gly-Leu-Lys-Lys-Glu-Arg-Leu-Leu-Asp-Asp-Arg-His-Asp-Ser32-Gly-Leu-Asp-Ser36-Met-Lys-Asp-Glu-Glu) (American Peptide Co.). 20 μL of the standard reaction mixture contained 5 μM biotinylated IκBα peptide, 0.1 μCi/reaction [γ-^33P] ATP (Amersham) (about 1×10^5 cpm), 1 μM ATP (Sigma), 1 mM DTT (Sigma), 2 mM MgCl2 (Sigma), 2 mM MnCl2 (Sigma), 10 mM NaF (Sigma), 25 mM Hepes (Sigma) buffer, pH 7.6 and 20 μL enzyme solution and 10 μL inhibitor in a final volume of 50 μL. After incubation at 25° C. for 30 min, 150 μL resin (Dowex anion-exchange resin AG1X8 200-400 mesh) in 900 mM formate, pH 3.0 was added to each well to stop the reaction. Resin was allowed to settle for 1 h and 50 μL of supernatant was removed to a Micolite-2 flat bottom plate (Dynex). […]

On to `CC(C)Cc1ccc(-c2cccc(-n3cc(NC(N)=O)c(C(N)=O)n3)c2)cc1` [Example 363, 4-[(aminocarbonyl)amino]-1-(4′-isobutyl-1,1′-biphenyl-3-yl)-1H-pyrazole-3-carboxamide], for which the IC50 – broadly, the point on the concentration scale where inhibition reaches its midpoint – is greater than 20 µM. To `NC(=O)Nc1cn(-c2ccc(S(=O)(=O)c3ccccc3O)cc2)nc1C(N)=O` [Example 288, 1-(1-(4-(2-hydroxyphenylsulfonyl)phenyl)-3-carbamoyl-1H-pyrazol-4-yl)urea] belongs 0.252 µM. To `N#Cc1cccc(-c2ccc(-n3cc(NC(N)=O)c(C(N)=O)n3)cc2)c1` [Example 104, 4-[(aminocarbonyl)amino]-1-(3′-cyano-1,1′-biphenyl-4-yl)-1H-pyrazole-3-carboxamide] belongs 0.677 µM; to `CCCNC(=O)c1ccc(-c2ccc(-n3cc(NC(N)=O)c(C(N)=O)n3)cc2)cc1` [Example 146, 4-[(aminocarbonyl)amino]-1-{4′-[(propylamino)carbonyl]-1,1′-biphenyl-4-yl}-1H-pyrazole-3-carboxamide], 6.28 µM. For the molecule `NC(=O)Nc1cn(-c2ccc(-c3cccc(-n4cccn4)c3)cc2)nc1C(N)=O` [Example 130, 4-[(aminocarbonyl)amino]-1-[3′-(1H-pyrazol-1-yl)-1,1′-biphenyl-4-yl]-1H-pyrazole-3-carboxamide], the IC50 is 1.79 µM. To `COC(=O)c1ccc(-c2ccc(-n3cc(NC(N)=O)c(C(N)=O)n3)cc2)c(N)c1` [Example 29, methyl 2-amino-4′-{3-(aminocarbonyl)-4-[(aminocarbonyl)amino]-1H-pyrazol-1-yl}-1,1′-biphenyl-4-carboxylate] belongs 0.53 µM; to `NC(=O)Nc1cn(-c2ccc(-c3ccc(C(N)=O)c(F)c3)cc2)nc1C(N)=O` [Example 183, 4-[(aminocarbonyl)amino]-1-[4′-(aminocarbonyl)-3′-fluoro-1,1′-biphenyl-4-yl]-1H-pyrazole-3-carboxamide], 0.13 µM. The figure for `Cc1cc(-c2cccc(-n3cc(NC(N)=O)c(C(N)=O)n3)c2)ccn1` [Example 63, 4-[(aminocarbonyl)amino]-1-[3-(2-methylpyridin-4-yl)phenyl]-1H-pyrazole-3-carboxamide] is 0.59 µM.

`NC(=O)Nc1cn(-c2ccc(Cl)c(Cl)c2)nc1C(N)=O` [Example 188, 4-[(aminocarbonyl)amino]-1-(3,4-dichlorophenyl)-1H-pyrazole-3-carboxamide]: the IC50 came to 0.46 µM. Regarding `CC(C)Cc1ccc(-c2ccc(-n3cc(C(N)=O)c(NC(N)=O)n3)cc2)cc1` [Example 127], the IC50 is greater than 20 µM.

Take `NC(=O)Nc1cn(-c2cccc(-c3ccc(O)cc3)c2)nc1C(N)=O` [Example 47, 4-[(aminocarbonyl)amino]-1-(4′-hydroxy-1,1 ′-biphenyl-3-yl)-1H-pyrazole-3-carboxamide]: the IC50 is 0.66 µM. Take `NC(=O)Nc1cn(-c2ccc(Sc3ccccc3F)c(Cl)c2)nc1C(N)=O` [Example 270, 4-[(aminocarbonyl)amino]-1-{3-chloro-4-[(2-fluorophenyl)thio]phenyl}-1H-pyrazole-3-carboxamide]: the IC50 was determined as 3.7 µM.

`NC(=O)Nc1cn(-c2cccc(-c3cccc(Cl)c3)c2)nc1C(N)=O` [Example 347, 4-[(aminocarbonyl)amino]-1-(3′-chloro-1,1′-biphenyl-3-yl)-1H-pyrazole-3-carboxamide]: the IC50 is greater than 20 µM. Regarding `CC(C)CCSc1ccc(-n2cc(NC(N)=O)c(C(N)=O)n2)cc1` [Example 291, 1-(3-carbamoyl-1-(4-(isopentylthio)phenyl)-1H-pyrazol-4-yl)urea], the IC50 was 6.23 µM. The figure for `CC(C)c1ccc(-c2cccc(-n3cc(NC(N)=O)c(C(N)=O)n3)c2)cc1` [Example 353, 4-[(aminocarbonyl)amino]-1-(4′-isopropyl-1,1′-biphenyl-3-yl)-1H-pyrazole-3-carboxamide] is greater than 20 µM; for `CCN(CC)C(=O)COc1cccc(-c2ccc(-n3cc(NC(N)=O)c(C(N)=O)n3)cc2)c1` [Example 336, 4-[(aminocarbonyl)amino]-1-{3′-[2-(diethylamino)-2-oxoethoxy]-1,1′-biphenyl-4-yl}-1H-pyrazole-3-carboxamide] it is 0.42 µM. The figure for `N#CCc1ccc(-c2ccc(-n3cc(NC(N)=O)c(C(N)=O)n3)cc2)cc1` [Example 37, 4-[(aminocarbonyl)amino]-1-[4′-(cyanomethyl)-1,1′-biphenyl-4-yl]-1H-pyrazole-3-carboxamide] is 0.79 µM; for `COc1ccc(Cl)cc1-c1ccc(-n2cc(NC(N)=O)c(C(N)=O)n2)cc1` [Example 129, 4-[(aminocarbonyl)amino]-1-(5′-chloro-2′-methoxy-1,1′-biphenyl-4-yl)-1H-pyrazole-3-carboxamide] it is 1.82 µM; for `NC(=O)NC(=O)Nc1cn(-c2ccc(Br)c(C(F)(F)F)c2)nc1C(N)=O` [Example 2, 4-({[(aminocarbonyl)amino]carbonyl}amino)-1-[4-bromo-3-(trifluoromethyl)phenyl]-1H-pyrazole-3-carboxamide] it is 10.7 µM. The figure for `NC(=O)Nc1cn(-c2ccc(Sc3ccccc3O)cc2)nc1C(N)=O` [Example 208, 1-(1-(4-(2-hydroxyphenylthio)phenyl)-3-carbamoyl-1H-pyrazol-4-yl)urea] is 0.328 µM; for `CSc1ccccc1-c1cccc(-n2cc(NC(N)=O)c(C(N)=O)n2)c1` [Example 356, 4-[(aminocarbonyl)amino]-1-[2′-(methylthio)-1,1′-biphenyl-3-yl]-1H-pyrazole-3-carboxamide] it is greater than 20 µM. `NC(=O)Nc1cn(-c2cccc(-c3cccc(C(N)=O)c3)c2)nc1C(N)=O` [Example 79, 4-[(aminocarbonyl)amino]-1-[3′-(aminocarbonyl)-1,1′-biphenyl-3-yl]-1H-pyrazole-3-carboxamide]: the IC50 is 5.67 µM. The figure for `NC(=O)c1nn(-c2cccc(Br)c2)cc1NC(N)=S` [Example 12, 4-[(aminocarbonothioyl)amino]-1-(3-bromophenyl)-1H-pyrazole-3-carboxamide] is 1.43 µM.
